Data set [1] can be described thus: Iminosugar safety study, C57/B1/6 mice. As to conditions: oral suspension twice a day for 7 days at 100 and 10 mg/kg.
The next data set relates to Vaccinia NYCBOH strain. In kind it is cell-based. As to conditions: read-out: IC50, inhibition of infectivity of Vaccinia virus.
Data set [2] in a line: Iminosugar safety study, BALB/c mice. As to conditions: for weight loss compared to vehicle only control: oral suspension twice a day for 7 days at 100 and 10 mg/kg.
Another data set relates to Cowpox Brighton. In kind it is in vivo, BALB/C mice. As to conditions: n=10.
For data set [3] the following is noted: mouse, in vivo.

Where “and” joins values, the source holds several entries; their conditions need not be identical. Equal entries are not always repeated.

One may read the IC50 as the point on the concentration scale where inhibition reaches its midpoint. For `CCCCN1C[C@H](O)[C@@H](O)[C@H](O)[C@H]1CO` [UV-1, N-Butyl deoxynojirimycin], the “weight loss compared to vehicle only control” value in data set [1] and in data set [2] was “did not show any significant signs of weight loss” throughout. For the same compound, the IC50 in the data set on Vaccinia NYCBOH strain came out at 90 µM.
With `CCCCCCCCCN1C[C@H](O)[C@@H](O)[C@H](O)[C@H]1CO` [UV-2, N-Nonyl deoxynojirimycin], the IC50 with Vaccinia NYCBOH strain is 21 µM.
Same read-out and setting: in the case of `CCCOCCCCCCN1C[C@H](O)[C@@H](O)[C@H](O)[C@H]1CO` [UV-3, N-(7-Oxadecyl)deoxynojirimycin] it was 7 µM.
Turning to `COCCCCCCCCCN1C[C@H](O)[C@@H](O)[C@H](O)[C@H]1CO` [UV-4, N-(9-Methoxynonyl) deoxynojirimycin], the “percentage of surviving mice” value in the data set on Cowpox Brighton was 100% and 70%. Further, in data set [3], the “weight loss or adverse effects” value is on record as “no weight loss or adverse effects observed”. The “weight loss compared to vehicle only control” value in data set [1] and in data set [2] was “did not show any significant signs of weight loss” each time. Further, in the data set on Vaccinia NYCBOH strain, the IC50 was determined as 59 µM.
Consider `[N-]=[N+]=Nc1ccc(NCCCCCCN2C[C@H](O)[C@@H](O)[C@H](O)[C@H]2CO)c([N+](=O)[O-])c1` [UV-5, N—(N-{4′-azido-2′-nitrophenyl}-6-aminohexyl)deoxynojirimycin], for which the “weight loss compared to vehicle only control” value in data set [1] and in data set [2] was “did not show any significant signs of weight loss” in each case. For the same compound, the IC50 with Vaccinia NYCBOH strain was 3 µM. In data set [2] (highest concentration (100 mg/kg twice a day, 7 days), symptoms ceased when treatment was done), the “general health, clinical signs” value is “signs of diarrhea, red urine, and a ruffled appearance”.

The values above are taken from US20110065753A1, “METHODS OF TREATING POXVIRAL INFECTIONS” (priority 2009, published 2011).
